Reference: publication PMC10840383, “Clinical features, functional consequences, and rescue pharmacology of missense GRID1 and GRID2 human variants” (Human Molecular Genetics, 2023)
“Also recorded” adds a separate entry of the source.

Molecular target: T1, GluD2-A654T-D535E (Rattus norvegicus, UniProt Q63226, A654T/D535E)
T1 construct: expressed in transfected cells; host or cells: Xenopus laevis oocytes injected with cRNA
T1 sequence (Q63226 24-1007 D535E/A654T): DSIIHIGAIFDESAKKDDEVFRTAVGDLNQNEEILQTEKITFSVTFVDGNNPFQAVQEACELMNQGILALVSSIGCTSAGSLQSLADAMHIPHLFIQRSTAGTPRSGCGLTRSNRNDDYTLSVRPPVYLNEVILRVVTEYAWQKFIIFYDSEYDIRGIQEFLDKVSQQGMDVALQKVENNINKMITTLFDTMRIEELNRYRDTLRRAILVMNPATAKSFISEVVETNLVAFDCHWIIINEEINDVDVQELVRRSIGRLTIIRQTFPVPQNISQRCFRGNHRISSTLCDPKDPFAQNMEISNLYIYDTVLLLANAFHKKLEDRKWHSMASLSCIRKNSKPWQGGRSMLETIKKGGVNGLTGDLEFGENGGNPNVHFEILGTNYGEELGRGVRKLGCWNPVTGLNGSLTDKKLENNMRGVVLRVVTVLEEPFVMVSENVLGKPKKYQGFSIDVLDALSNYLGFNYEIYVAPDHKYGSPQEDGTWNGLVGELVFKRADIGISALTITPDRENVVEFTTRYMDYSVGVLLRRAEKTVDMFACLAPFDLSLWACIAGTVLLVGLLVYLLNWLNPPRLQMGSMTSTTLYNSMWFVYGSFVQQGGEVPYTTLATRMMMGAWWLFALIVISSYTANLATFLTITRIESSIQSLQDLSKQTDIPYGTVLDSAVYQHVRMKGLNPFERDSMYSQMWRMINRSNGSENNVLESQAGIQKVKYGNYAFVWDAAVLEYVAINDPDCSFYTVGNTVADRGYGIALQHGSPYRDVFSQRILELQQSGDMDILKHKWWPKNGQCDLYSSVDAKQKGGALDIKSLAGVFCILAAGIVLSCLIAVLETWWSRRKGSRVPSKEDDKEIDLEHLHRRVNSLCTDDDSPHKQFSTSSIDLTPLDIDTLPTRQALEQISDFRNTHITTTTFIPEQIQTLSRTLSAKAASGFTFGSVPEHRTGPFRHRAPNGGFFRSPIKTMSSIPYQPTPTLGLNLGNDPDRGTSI
Assay: TEVC of constitutive current, Xenopus oocytes expressing GluD2-A654T-D535E
Assay type: cell-based
Details: for Effect on constitutive current, in words: compared to GluD2-A654T
From the text: Human GluD1 (GRID1) and rat GluD2 (Grid2) cDNAs were introduced into the pGEM-HE and pCI-neo vectors. GRID1 (NM_017551.3) gene fragments were synthesized by Integrated DNA Technologies and cloned into empty vectors using InFusion cloning (Clontech). […] However, rat and human GluD2-encoding cDNA are identical in the M3 domain in which many of the variants we studied reside (see Supplementary Fig. S1). The full open reading frame for both constructs were verified by Sanger sequencing (Eurofins) and the full plasmid sequence was verified by whole plasmid sequencing (plasmidsaurus). Variant cDNA changes identified in patients were introduced into the cloned human GRID1 (NM_017551.3) in pGEM-HE and cloned rat Grid2 cDNA sequence (NM_024379.1) in pGEM-HE vector using Quikchange Lightning (Agilent) protocol according to the manufacturer’s instructions. Vectors were linearized and cRNA was synthesized using T7 RNA mMESSAGE kit (Invitrogen).
Xenopus laevis oocytes were prepared from ovaries purchased from Xenopus 1 (Dexter, MI) as previously described, [68] and incubated at 16°C in culture Barth’s solution (in mM) 88 NaCl, 2.4 NaHCO3, 1 KCl, 0.33 Ca(NO3)2, 0.41 CaCl2, 0.82 MgSO4, 10 HEPES, pH 7.4 with NaOH, supplemented with 1 U/ml penicillin and 1 μg/ml streptomycin. Oocytes were injected with approximately 5–40 ng RNA per oocyte and then incubated at 16–19°C for 1–3 days in culture Barth’s solution. […] Two-electrode voltage clamp (TEVC) recordings were performed as previously described. Unless otherwise specified, extracellular solution contained (in mM) 90 NaCl, 3 KCl, 0.5 BaCl2, 0.01 EDTA, 10 HEPES, and was brought to pH 7.4 with NaOH. The oocytes were placed in a dual track recording chamber and gravity perfused with solution exchange controlled via a computer-driven 8-valve positioner (Digital MVP Valve). […] Recording electrodes were filled with 0.3 M KCl, and currents were recorded with membrane voltage held at −40 mV. To establish constitutive activity of recombinant receptors when compared to wild type receptors, we used the oocyte recording solution described above, but with 90 mM N-methyl-D-glucamine (NMDG) chloride replacing 90 mM NaCl. […] For Ca^2+ concentration-response curves, choline chloride was used to maintain equimolar concentrations of Cl^− ions in the extracellular solution across the changing concentrations of calcium chloride. All compounds used in this study for concentration-response oocyte recordings were dissolved in deionized water as 50–100 mM stock solutions. In some rescue pharmacology experiments, we substituted 1 mM CaCl2 for 0.5 mM BaCl2 to evaluate Ca^2+-dependent control of receptor responses.
Data are represented as mean ± SEM. Statistical significance of logEC50 or logIC50 was determined by one-way analysis of variance (ANOVA) with a Dunnett’s multiple comparisons post-hoc test with a significance threshold of P < 0.05. Sample sizes were adjusted so that the power to detect an effect size of 1 was > 0.9 (GPower 3.1). All error bars on figures represent the SEM.

D-serine % Max (NMDG+ − Na+) Mean ± SEM (percent of constitutive leak current (NMDG+/Na+ difference current)) | EC50 (modulation of constitutive current, inhibited by Ca2+ (not potentiated), read-out: Ca2+ EC50 [95% CI]) [mM] | Ca2+ % Max (NMDG+ − Na+) Mean ± SEM (normalized to NMDG+ − Na+ difference current) | SMILES | Effect on constitutive current, in words
60 ± 2.2 (15) % | – | – | N[C@H](CO)C(=O)O [D-serine] | modestly reduced D-serine potency
– | 5.6 | 70 ± 2.0 (15) % | [Ca+2] [Ca^2+] | weakly inhibited; also recorded: complete loss of Ca^2+ potentiation
